We go through three compounds from US8404742B2, “Diosmetin compounds, a process for their preparation and pharmaceutical compositions containing them” (Les Laboratories Server, priority 2008, dated 2013).

A word on the inhibition: it is the percentage by which the read-out fell short of the control.

One assay deals with NADPH oxidase. Kind of assay: In vitro inhibition of the activity of NADPH oxidase in HUVEC (angiotensin II, lucigenin luminescence). The class given is cell-based, human. Particulars: 100 μM compound, angiotensin II 1 μM induction, control = 100%, n=3. The procedure: The study is carried out on human endothelial cells HUVEC (Human Umbilical Vein Endothelial Cells, Clonetics Co). The cells are cultured in an EBM2 medium (Endothelial Basal Medium, Clonetics Co) supplemented with 2% FCS (Fœtal Calf Serum) and EGM2 (Endothelial Growth Medium, Clonetics Co).
The cells are incubated in the presence of solvent (0.1% DMSO, compound of Example 1 control), EBM2 (compound of Example 2 control and compound of Example 3 control), compound of Example 1 (100 μM), compound of Example 2 (100 μM) or compound of Example 3 (100 μM) for 15 minutes and then activated using angiotensin II (1 μM) for 30 minutes in order to activate the NADPH oxidase. The cells are washed with EBM2, and then the NADPH oxidase substrate (NADPH, 200 μM) and lucigenin (25 μM) are added. The reduction in lucigenin by the superoxide anions produced by the NADPH oxidase is quantified using a luminometer. The number of counts per second (cps) of the control groups is compared to the treatment groups. The cps obtained with the control groups are considered as 100% NADPH oxidase activity.
The activity of the compounds of Examples 1, 2 and 3 is evaluated as a function of the number of cps obtained, that activity being greater the lower the number of cps.

Assay [1] has as its system Leukocyte adhesion to the endothelial cells in the post-capillary venules. The experiment in a line: In vivo inhibition of leukocyte adhesion (ischaemia/reperfusion, hamster cheek pouch). On the set-up: species or system hamsters. The conditions noted are these: 3 mg/kg oral single dose, n=3. The procedure:
Three groups of 3 hamsters, weighing from 90 to 110 g, are used in this study. Thirty minutes before anaesthesia, the hamsters are treated orally with a single dose of placebo (gum arabic 10%), of compound of Example 1 (3 mg/kg) or of reference compound (3 mg/kg). The animals are anaesthetised with pentobarbital 50 mg/kg by intraperitoneal administration. The hamsters are placed under a microscope and the cheek pouch is isolated and immersed in a perfusion solution (NaCl 110.0 mM, KCl 4.7 mM, CaCl2 2.0 mM, MgSO4 1.2 mM, NaHCO3 18.0 mM, Hepes 15.39 mM and Hepes Na^+-salt 14.61 mM), (Duling, The preparation and use of the hamster cheek pouch for studies of the microcirculation, 1973, Microvasc. Res. 5: 423-429; Svensjö et al., The hamster cheek pouch preparation as a model for studies of macromolecular permeability of the microvasculature, 1978, Uppsala J. Med. Sci. 83: 71-79).
Local ischaemia is brought about with the aid of a latex tube fitted at the entrance to the cheek pouch. The intratubular pressure of the tube is increased to 200-220 mm Hg with the aid of a calibrated syringe. This total occlusion is carried out for 30 minutes and then reperfusion is performed for 45 minutes. Leukocyte adhesion to the endothelial cells in the post-capillary venules is quantified in a field of 6 mm^2 immediately after the […] (defined as 100%) and then at different times after reperfusion (0, 15, 30 and 45 minutes).

The subject of a further assay is washed platelets. Kind of assay: In vitro inhibition of platelet aggregation (collagen-induced, washed platelets, turbidimetry). The conditions noted are these: Oryctolagus cuniculus, read-out: percentage inhibition of platelet aggregation.

Procedure for washed platelets: The platelet-rich plasma is obtained by centrifugation. The platelets are then washed by centrifugation.
The washed platelets are resuspended in a Tyrode buffer. […] After 2 minutes, aggregation is brought about using collagen (4 μg/ml); the response is then recorded for 6 minutes. Platelet aggregation is quantified by means of turbidimetry, that is to say the percentage light that is transmitted through the platelet suspension with respect to a cell containing Tyrode and a cell containing the solvent (0.1% DMSO).

Turning to `C=C(C)Cc1c(-c2cc(=O)c3c(O)c(CC(=C)C)c(O[C@@H]4O[C@H](C(=O)O)[C@@H](O)[C@H](O)[C@H]4O)c(CC(=C)C)c3o2)ccc(OC)c1O` [Example 2, (5-Hydroxy-2-[3-hydroxy-4-methoxy-2-(isobut-2-en-1-yl)phenyl]-6,8-bis(isobut-2-en-1-yl)-4-oxo-4H-chromen-7-yl)-beta-D-glucuronic acid], the “NADPH oxidase activity (%/control group)” value in the assay with NADPH oxidase is 30.60 ± 4.83%.

In the case of `C=C(C)Cc1c(-c2cc(=O)c3c(O)c(CC(=C)C)c(O)c(CC(=C)C)c3o2)ccc(OC)c1O[C@@H]1O[C@H](C(=O)O)[C@@H](O)[C@H](O)[C@H]1O` [Example 3, 3-[5,7-Dihydroxy-6,8-bis(isobut-2-en-1-yl)-4-oxo-4H-chromen-2-yl]-6-methoxy-2-(isobut-2-en-1-yl)phenyl-beta-D-glucuronic acid], in the assay with NADPH oxidase, the “NADPH oxidase activity (%/control group)” value is listed as 18.45 ± 4.08%.

Consider `C=C(C)Cc1c(-c2cc(=O)c3c(O)c(CC(=C)C)c(O)c(CC(=C)C)c3o2)ccc(OC)c1O` [Example 1, 6,8,2′-Tris(isobut-2-en-1-yl)diosmetin], for which the “number of leukocytes adhering to endothelial cells in post-capillary venules (number after ischaemia = 100%)” value in assay [1] (0 minutes after reperfusion) is recorded as 81.7 ± 19.1%; in assay [1] (15 minutes after reperfusion) it was 100 ± 13.7%; in assay [1] (30 minutes after reperfusion) it was 91.0 ± 18.7%; in assay [1] (45 minutes after reperfusion), 109.3 ± 23.0%. For the same compound, the “NADPH oxidase activity (%/control group)” value in the assay with NADPH oxidase is recorded as 38.16 ± 3.13%. Besides, the inhibition at 30 µM in the assay on washed platelets came out at 36.6 ± 9.9%.
